In paper PMC2191741 (The Journal of Experimental Medicine, 1994):

B1: mAb II-481: IgG-2b mouse mAb directed at gE of HSV-1 (antibody, V domains shown)
VH: GILQPSQTLSLTCSFSGFSLTTYGIGVGWIRQPSGKGLEWLAHIWWNDNKFYNTVLKSRLTISRDTSNNQVFLRIASMDTADTATYYCARMRDGAWFAYWGQGTLVTVSA
VL: SLAVSAGEKVTMTCKSSQSVLYSSDHKNYLAWYQQKPGQSPKLLIYWASTRESGVPDRFTGSGSGTDFTLTINNVQTEDLAVYFCHQYLSSFTFGGGTKLEIQ

Key:
[1] = system: human polyclonal IgM RF binding to mAb II-481; settings: text summary across the individual polyclonal IgM RFs tested
[2] = system: gE of HSV-1; test: ELISA of hybridoma supernatants with isolated gE and whole HSV-1; format: binding; settings: hybridoma supernatant; isolated gE 5 ug/ml

| Molecule | inhibition of RF binding to mAb II-481 by single inhibitor [1] | reactivity with isolated gE and whole HSV-1 by ELISA [2] |
| --- | --- | --- |
| SGVPDRF | 62-90% | – |
| CIKVAVS [reference compound] | No inhibition | – |
| HIWWNDN | 80-100% | – |
| B1 | complete inhibition | strong anti-gE specificity |
